From US7662810B2, “2-arylmethylazetidine carbapenem derivatives and preparation thereof” (Korea Research Institute of Chemical Technology, priority 2004, dated 2010)
In brackets after ≈: the same amount, converted by molar mass. Read-outs that look alike come from different tables or passages of the source.

What was measured:
[1] = tested on: Staphylococcus pyogenes 77A; test: Determination of Protection Dose (PD50) in Infected Animal Model; assay type: in vivo; settings: mice infected intraperitoneally with Staphylococcus pyogenes 77A; compound injected intraperitoneally 1 hour after the infection
Description: (§1) In order to get the lethal dose (LD100) of bacteria, […] pyogenes 77A and Escherichia coli 078 were each diluted by 10^2˜10^9 times. […] For a main experiment, 3 to 4 week-old SPF ICR male mice were divided into 4 groups each of 8 to 10 mice, and fasted for 24 hours before a test. The solutions of […] pyogenes 77A and Escherichia coli 078 were concentrated to a level that was 2 to 10 times of LD100, and the concentrated […] pyogenes 77A solution mixed with 10% horse serum and the concentrated Escherichia coli 078 solution mixed with 5% hog gastric mucin were each injected intraperitoneally into the mice of each group to induce whole body infection.
(§2) The serially diluted solutions of the compound of Example 14 or meropenem (5 different concentrations) were injected intraperitoneally into the infected mice 1 hour after the infection. All of the mice in the control group injected with physiological salt solution died within 48 hours. The number of survived mouse in each group injected with antibacterial material, were counted to determine PD50, and the 95% confidence interval thereof was calculated employing Probit method.

Escherichia coli 078 = test: as above; assay type: in vivo; settings: mice infected intraperitoneally with Escherichia coli 078; compound injected intraperitoneally 1 hour after the infection
Description: as §1, §2

[2] = Test of Pharmacokinetics in Animals (rats); assay type: in vivo; settings: rat, 20 mg/kg
Description: The pharmacokinetics of the carbapenem derivatives of the present invention was determined using mice. Each of the compounds of Examples 13 and 14 and meropenem (a positive control) was dissolved in distilled water, and mice were orally administered (PO) or subcutaneously injected (SC) at a dosage of 40 mg/kg body weight (I.C.R mice, weighing 22 to 25 g, 4 mice/group). Blood samples were withdrawn from mice tails using heparinated capillaries at 10 min., 20 min., 30 min., 45 min., 1 hour, 2 hours, 3 hours and 4 hours after the administration.
Standard antibiotic samples were prepared by serial two-fold dilution with control blood. Agar plates were prepared with Müller-Hinton agar medium containing 6.7% sheep blood and 1% Streptococcus pyogenes 77A culture solution, and the diluted standard and blood samples were added to wells formed on the plates. The plate was stored at 4° C. for 1 hour to allow the sample to spread, and incubated at 37° C. for 18 hours. PK (pharmacokinetic) change indicators (AUC, Tmax, Cmax and T1/2) of the test compound concentration remaining in the mouse blood over time were assayed over a set period.
Then, pharmacokinetical assay (amount of medicament administered was 20 mg/kg) was carried out as above using rats.

Escherichia coli 1507 E = test: Measurement of Minimum Inhibitory Concentration (MIC); assay type: cell-based
Description: (§3) The antibacterial activities of the compounds of the present invention prepared in the above Examples against Gram-positive and Gram-negative bacteria, MRSA and QRS were tested as follows.
(§4) Respective bacterial strains were inoculated into 3 ml of Fleisch extract broth (beef extract 1%, peptone 1%, NaCl 0.3%, Na2HPO4.12H2O 0.2%, pH 7.4-7.5. 10% horse serum was supplemented for Streptococcus pyogenes and S. facium) and cultured on a shaking incubator at 37° C. for 18 hours. About 10^4 CFU/spot of the cultured bacterial strains were inoculated onto Müller-Hinton agar plates containing serial double dilutions (final concentration of 0.002 to 100 μg/ml) of a test compound employing an automatic inoculator (Dynatech, USA), and incubated at 37° C. for 18 hours. When the incubation was completed, the minimum inhibitory concentration was determined. Meropenem (Yuhan corporation, Korea) and vancomycin (Cj Inco., Korea) were used as standard antibiotics, respectively.

[3] = tested on: Enterobacter cloacae 1321 E; test: as above; assay type: cell-based
Description: as §3, §4

[4] = tested on: Enterobacter cloacae P 99; test: as above; assay type: cell-based
Description: as §3, §4

[5] = tested on: Klebsiella aerogenes 1522 E; test: as above; assay type: cell-based
Description: as §3, §4

[6] = tested on: Staphylococcus aureus 241; test: Measurement of Minimum Inhibitory Concentration (MIC), QRS; assay type: cell-based
Description: as §3, §4

[7] = tested on: Staphylococcus aureus 179; test: as above; assay type: cell-based
Description: as §3, §4

[8] = tested on: Staphylococcus epidermidis 291; test: as above; assay type: cell-based; settings: QRS, Staphylococcus epidermidis 291
Description: as §3, §4

[9] = tested on: Staphylococcus epidermidis 178; test: as above; assay type: cell-based; settings: QRS, Staphylococcus epidermidis 178
Description: as §3, §4

[10] = tested on: Staphylococcus aureus 293; test: as above; assay type: cell-based; settings: QRS, Staphylococcus aureus 293
Description: as §3, §4

[11] = tested on: Staphylococcus aureus 690E; test: Measurement of Minimum Inhibitory Concentration (MIC), MRSA; assay type: cell-based; settings: Staphylococcus aureus 690E
Description: as §3, §4

[12] = tested on: Staphylococcus aureus 697E; test: as above; assay type: cell-based; settings: Staphylococcus aureus 697E
Description: as §3, §4

[13] = tested on: Staphylococcus aureus 88E; test: as above; assay type: cell-based
Description: as §3, §4

[14] = tested on: Staphylococcus aureus 256E; test: as above; assay type: cell-based; settings: Staphylococcus aureus 256E
Description: as §3, §4

[15] = tested on: Staphylococcus aureus 121E; test: as above; assay type: cell-based
Description: as §3, §4

[16] = tested on: Staphylococcus aureus 694E; test: as above; assay type: cell-based; settings: Staphylococcus aureus 694E
Description: as §3, §4

[17] = tested on: Staphylococcus aureus 693E; test: as above; assay type: cell-based; settings: Staphylococcus aureus 693E
Description: as §3, §4

[18] = tested on: Staphylococcus aureus 692E; test: as above; assay type: cell-based; settings: Staphylococcus aureus 692E
Description: as §3, §4

[19] = tested on: Staphylococcus aureus 208E; test: as above; assay type: cell-based; settings: Staphylococcus aureus 208E
Description: as §3, §4

[20] = tested on: Staphylococcus aureus 695E; test: as above; assay type: cell-based; settings: Staphylococcus aureus 695E
Description: as §3, §4

[21] = Test of Pharmacokinetics in Animals (mice); assay type: in vivo; settings: mouse, 40 mg/kg
Description: The pharmacokinetics of the carbapenem derivatives of the present invention was determined using mice. […] Standard antibiotic samples were prepared by serial two-fold dilution with control blood. […] PK (pharmacokinetic) change indicators (AUC, Tmax, Cmax and T1/2) of the test compound concentration remaining in the mouse blood over time were assayed over a set period.

SMILES: COc1ccc(CN2CC(SC3=C(C(=O)[O-])N4C(=O)[C@H]([C@@H](C)O)[C@H]4[C@H]3C)C2)cc1.[K+] [Exam. 14, Potassium(1R,5S,6S)-2-[1-(4-methoxybenzyl)-azetidine-3-yl-thio]-6-[(1R)-1-hydroxylethyl]-1-methylcarbapen-2-em-3-carboxylate]
- PD50 [1]: 3.05 mg/kg
- PD50 (Escherichia coli 078): 1.44 mg/kg
- AUC, times higher than meropenem ([2]; in vivo): 17 times
- increase in T1/2 than meropenem ([2]; in vivo): more than 2 times
- AUC (area under blood-medicament concentration curve till 24 hours after administration) ([2]; in vivo, po): 330 ng·h/mL
- Cmax ([2]; in vivo, po): 200 ng/mL
- T1/2 (half time of blood-medicament concentration) ([2]; in vivo, po): 304 min
- Tmax ([2]; in vivo, po): 42.6 min
- absorption through the oral route ([2]; in vivo, po): absorbed through the oral route to a significant extent
- AUC (area under blood-medicament concentration curve till 24 hours after administration) ([2]; in vivo, sc): 34580 ng·h/mL
- Cmax ([2]; in vivo, sc): 35850 ng/mL
- T1/2 (half time of blood-medicament concentration) ([2]; in vivo, sc): 41.4 min
- Tmax ([2]; in vivo, sc): 22.2 min
- MIC (Escherichia coli 1507 E): 0.098 µg/mL
- MIC [3]: 0.098 µg/mL
- MIC [4]: 0.391 µg/mL
- MIC [5]: 0.195 µg/mL
- MIC ([6]; QRS, Staphylococcus aureus 241): 0.049 µg/mL
- MIC ([7]; QRS, Staphylococcus aureus 179): 0.049 µg/mL
- MIC [8]: 0.391 µg/mL
- MIC [9]: 0.391 µg/mL
- MIC [10]: 0.098 µg/mL
- MIC [11]: 0.391 µg/mL
- MIC [12]: 0.195 µg/mL
- MIC ([13]; Staphylococcus aureus 88E): 0.1951 µg/mL
- MIC [14]: 0.025 µg/mL
- MIC ([15]; Staphylococcus aureus 121E): 0.098 µg/mL
- MIC [16]: 0.098 µg/mL
- MIC [17]: 0.391 µg/mL
- MIC [18]: 0.391 µg/mL
- MIC [19]: 0.049 µg/mL
- MIC [20]: 0.098 µg/mL
- AUC, times higher than meropenem ([21]; in vivo): 10 to 12 times
- increase in T1/2 than meropenem ([21]; in vivo): more than 2 times
- AUC (area under blood-medicament concentration curve till 24 hours from administration) ([21]; in vivo, po): 5200 ng·h/mL
- Cmax ([21]; in vivo, po): 2070 ng/mL
- T1/2 (half time of blood-medicament concentration) ([21]; in vivo, po): 124 min
- Tmax ([21]; in vivo, po): 26.4 min
- absorption through the oral route ([21]; in vivo, po): absorbed through the oral route to significant extents
- AUC (area under blood-medicament concentration curve till 24 hours from administration) ([21]; in vivo, sc): 79660 ng·h/mL
- Cmax ([21]; in vivo, sc): 69610 ng/mL
- T1/2 (half time of blood-medicament concentration) ([21]; in vivo, sc): 45.6 min
- Tmax ([21]; in vivo, sc): 15 min

SMILES: C[C@@H](O)[C@H]1C(=O)N2C(C(=O)O)=C(S[C@@H]3CN[C@H](C(=O)N(C)C)C3)[C@H](C)[C@H]12 [Meropenem, reference compound]
- PD50 [1]: 9.13 mg/kg
- PD50 (Escherichia coli 078): 3.31 mg/kg
- AUC ([2]; whole blood, rats, SC, read-out: AUC (area under blood-medicament concentration curve till 24 hours after administration)): 2050 ng·h/mL
- Cmax ([2]; whole blood, rats, SC, read-out: Cmax): 3920 ng/mL
- half-life ([2]; whole blood, rats, SC, read-out: T1/2 (half time of blood-medicament concentration) (converted)): 18.6 min
- Tmax ([2]; whole blood, rats, SC, read-out: Tmax): 15 min
- MIC (Escherichia coli 1507 E; read-out: MIC): 0.025 µg/mL (≈ 0.0652 µM)
- MIC ([3]; read-out: MIC): 0.025 µg/mL (≈ 0.0652 µM)
- MIC ([4]; P99, read-out: MIC): 0.049 µg/mL (≈ 0.128 µM)
- MIC ([5]; read-out: MIC): 0.049 µg/mL (≈ 0.128 µM)
- MIC ([6]; Staphylococcus aureus, 241): 0.195 µg/mL (≈ 0.509 µM)
- MIC ([7]; Staphylococcus aureus, 179): 0.195 µg/mL (≈ 0.509 µM)
- MIC ([8]; read-out: MIC): 1.56 µg/mL (≈ 4.08 µM)
- MIC ([9]; read-out: MIC): 0.781 µg/mL (≈ 2.04 µM)
- MIC ([10]; read-out: MIC): 0.781 µg/mL (≈ 2.04 µM)
- MIC ([11]; read-out: MIC): 3.12 µg/mL (≈ 8.15 µM)
- MIC ([12]; read-out: MIC): 0.098 µg/mL (≈ 0.256 µM)
- MIC ([13]; Staphylococcus aureus): 0.195 µg/mL (≈ 0.509 µM)
- MIC ([14]; read-out: MIC): 0.049 µg/mL (≈ 0.128 µM)
- MIC ([15]; Staphylococcus aureus): 0.195 µg/mL (≈ 0.509 µM)
- MIC ([16]; read-out: MIC): 6.25 µg/mL (≈ 16.3 µM)
- MIC ([17]; read-out: MIC): 6.25 µg/mL (≈ 16.3 µM)
- MIC ([18]; read-out: MIC): 0.098 µg/mL (≈ 0.256 µM)
- MIC ([19]; read-out: MIC): 0.098 µg/mL (≈ 0.256 µM)
- MIC ([20]; read-out: MIC): 0.781 µg/mL (≈ 2.04 µM)
- AUC ([21]; ICR, whole blood, mice, SC, read-out: AUC (area under blood-medicament concentration curve till 24 hours from administration)): 7500 ng·h/mL
- Cmax ([21]; ICR, whole blood, mice, SC, read-out: Cmax): 13400 ng/mL
- half-life ([21]; ICR, whole blood, mice, SC, read-out: T1/2 (half time of blood-medicament concentration) (converted)): 25.8 min
- Tmax ([21]; ICR, whole blood, mice, SC, read-out: Tmax): 19.8 min
